Numbers after ± are expanded uncertainties.
Test: wn = mass fraction of the nth substance listed
Details: 101 kPa, Liquid

SMILES: NC(CO)(CO)CO [2-amino-2-(hydroxymethyl)-1,3-propanediol] + O
- mass density (298 K, w1 = 0.0217): 1001.3 ± 1 kg/m3
- viscosity (298 K, w1 = 0.0217): 0.913 ± 0.028 mPa·s
- mass density (298 K, w1 = 0.051): 1009 ± 1 kg/m3
- viscosity (298 K, w1 = 0.051): 0.995 ± 0.031 mPa·s
- mass density (298 K, w1 = 0.103): 1021.6 ± 1.1 kg/m3
- viscosity (298 K, w1 = 0.103): 1.148 ± 0.036 mPa·s
- mass density (298 K, w1 = 0.158): 1033.6 ± 1.1 kg/m3
- viscosity (298 K, w1 = 0.158): 1.353 ± 0.043 mPa·s
- mass density (298 K, w1 = 0.217): 1046.5 ± 1.1 kg/m3
- viscosity (298 K, w1 = 0.217): 1.605 ± 0.051 mPa·s
- mass density (303 K, w1 = 0.0217): 999.6 ± 1.1 kg/m3
- viscosity (303 K, w1 = 0.0217): 0.874 ± 0.028 mPa·s
- mass density (303 K, w1 = 0.051): 1007.4 ± 1.1 kg/m3
- viscosity (303 K, w1 = 0.051): 0.94 ± 0.03 mPa·s
- mass density (303 K, w1 = 0.103): 1019.2 ± 1.1 kg/m3
- viscosity (303 K, w1 = 0.103): 1.059 ± 0.034 mPa·s
- mass density (303 K, w1 = 0.158): 1031.8 ± 1.1 kg/m3
- viscosity (303 K, w1 = 0.158): 1.223 ± 0.039 mPa·s
- mass density (303 K, w1 = 0.217): 1044.2 ± 1.2 kg/m3
- viscosity (303 K, w1 = 0.217): 1.449 ± 0.046 mPa·s
- mass density (313 K, w1 = 0.0217): 994.9 ± 1.2 kg/m3
- viscosity (313 K, w1 = 0.0217): 0.733 ± 0.024 mPa·s
- mass density (313 K, w1 = 0.051): 1002.8 ± 1.2 kg/m3
- viscosity (313 K, w1 = 0.051): 0.799 ± 0.026 mPa·s
- mass density (313 K, w1 = 0.103): 1014.6 ± 1.2 kg/m3
- viscosity (313 K, w1 = 0.103): 0.884 ± 0.029 mPa·s
- mass density (313 K, w1 = 0.158): 1026.8 ± 1.3 kg/m3
- viscosity (313 K, w1 = 0.158): 1.008 ± 0.033 mPa·s
- mass density (313 K, w1 = 0.217): 1038.9 ± 1.3 kg/m3
- viscosity (313 K, w1 = 0.217): 1.172 ± 0.038 mPa·s
- mass density (323 K, w1 = 0.0217): 988.1 ± 1.3 kg/m3
- viscosity (323 K, w1 = 0.0217): 0.6 ± 0.021 mPa·s
- mass density (323 K, w1 = 0.051): 996 ± 1.4 kg/m3
- viscosity (323 K, w1 = 0.051): 0.65 ± 0.022 mPa·s
- mass density (323 K, w1 = 0.103): 1008.2 ± 1.4 kg/m3
- viscosity (323 K, w1 = 0.103): 0.711 ± 0.024 mPa·s
- mass density (323 K, w1 = 0.158): 1019.9 ± 1.4 kg/m3
- viscosity (323 K, w1 = 0.158): 0.808 ± 0.027 mPa·s
- mass density (323 K, w1 = 0.217): 1032.7 ± 1.4 kg/m3
- viscosity (323 K, w1 = 0.217): 0.93 ± 0.032 mPa·s
